US10047096B2, “Substituted pyridobenzodiazepinone-derivatives and use thereof” (Bayer Pharma Aktiengesellschaft, priority 2014, dated 2018)

Assays:
human PDGFRβ = human PDGFRβ (Homo sapiens (Human), UniProt P09619); assay: PDGFRβ kinase assay (PDGFRβ-HTRF); format: biochemical; settings: 10 μM ATP; some mean values from multiple determinations
In short: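 GST-fused human PDGFRβ fragment (R561-L1106) from Sf9 cells was preincubated 15 min with compound in 50 mM HEPES pH 7.5, 10 mM MgCl2, 2.5 mM DTT, 0.01% Triton X-100; substrate was biotinylated poly-Glu,Tyr (4:1).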

[1] = target: pPDGFRβ in normal human dermal fibroblasts (NHDF) (Homo sapiens (Human), UniProt P09619); assay: Cellular pPDGFRβ inhibition assay; format: cell-based; settings: NHDF stimulated with 50 ng/ml PDGF-BB, 1 h
pPDGFRβ in normal human dermal fibroblasts (NHDF), sequence (P09619 33-1106): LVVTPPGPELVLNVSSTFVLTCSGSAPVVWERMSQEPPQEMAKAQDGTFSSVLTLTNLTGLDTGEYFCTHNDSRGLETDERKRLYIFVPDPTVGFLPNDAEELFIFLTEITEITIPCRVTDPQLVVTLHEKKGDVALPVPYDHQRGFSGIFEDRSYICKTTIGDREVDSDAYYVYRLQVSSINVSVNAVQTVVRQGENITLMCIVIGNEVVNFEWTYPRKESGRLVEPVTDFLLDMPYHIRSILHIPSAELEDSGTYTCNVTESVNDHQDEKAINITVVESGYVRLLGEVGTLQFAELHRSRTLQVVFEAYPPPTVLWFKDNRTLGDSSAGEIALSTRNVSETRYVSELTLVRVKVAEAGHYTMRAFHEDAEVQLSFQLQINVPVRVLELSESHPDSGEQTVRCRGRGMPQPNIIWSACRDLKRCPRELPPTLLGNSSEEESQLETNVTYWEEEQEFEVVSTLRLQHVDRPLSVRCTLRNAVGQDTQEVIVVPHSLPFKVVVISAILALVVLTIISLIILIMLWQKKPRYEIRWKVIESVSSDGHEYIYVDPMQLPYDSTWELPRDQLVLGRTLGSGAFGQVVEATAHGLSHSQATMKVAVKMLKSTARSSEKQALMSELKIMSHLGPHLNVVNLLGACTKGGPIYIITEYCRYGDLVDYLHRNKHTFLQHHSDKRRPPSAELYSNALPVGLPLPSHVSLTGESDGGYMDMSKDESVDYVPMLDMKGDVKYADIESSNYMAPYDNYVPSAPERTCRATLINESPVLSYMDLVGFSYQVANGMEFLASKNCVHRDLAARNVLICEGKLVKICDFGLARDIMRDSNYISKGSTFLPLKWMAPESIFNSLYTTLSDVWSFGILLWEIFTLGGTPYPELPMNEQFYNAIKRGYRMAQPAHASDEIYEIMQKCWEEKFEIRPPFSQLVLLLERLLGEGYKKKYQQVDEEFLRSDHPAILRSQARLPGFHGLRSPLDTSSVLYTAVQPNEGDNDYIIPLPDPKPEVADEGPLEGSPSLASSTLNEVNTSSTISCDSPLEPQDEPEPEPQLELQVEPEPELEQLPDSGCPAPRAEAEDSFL
Protocol: Thereafter, 50 ng/ml recombinant human PDGF-BB (R&D Systems, Cat. No. 220-BB-050) and a dilution series of the test substances to be examined in DMSO were added to the cells. The total volume per well was 100 μl. After incubation under the abovementioned conditions for one hour, the Opti-MEM® I Reduced Serum Medium was tapped out and discarded. Subsequently, the lysis buffer [Phospho PDGFRβ (Tyr751) Assay Whole Cell Lysate Kit, MSD, Cat. No. K150DVD-2] was made up according to the manufacturer's instructions and 70 μl of this mixture per well were added. The lysed cell samples were either stored at −20° C. or analysed immediately after the lysis in a Meso Scale SECTOR® Imager 2400 according to the abovementioned manufacturer's instructions. The measurement data were presented as percentage PDGFRβ stimulation compared to PDGF-BB-stimulated but substance-untreated cells. The IC50 values were calculated by employing the nonlinear regression (curve fit) function of GraphPad Prism 6 (La Jolla, Calif., USA).

human PDGFRβ, sequence (P09619 561-1106): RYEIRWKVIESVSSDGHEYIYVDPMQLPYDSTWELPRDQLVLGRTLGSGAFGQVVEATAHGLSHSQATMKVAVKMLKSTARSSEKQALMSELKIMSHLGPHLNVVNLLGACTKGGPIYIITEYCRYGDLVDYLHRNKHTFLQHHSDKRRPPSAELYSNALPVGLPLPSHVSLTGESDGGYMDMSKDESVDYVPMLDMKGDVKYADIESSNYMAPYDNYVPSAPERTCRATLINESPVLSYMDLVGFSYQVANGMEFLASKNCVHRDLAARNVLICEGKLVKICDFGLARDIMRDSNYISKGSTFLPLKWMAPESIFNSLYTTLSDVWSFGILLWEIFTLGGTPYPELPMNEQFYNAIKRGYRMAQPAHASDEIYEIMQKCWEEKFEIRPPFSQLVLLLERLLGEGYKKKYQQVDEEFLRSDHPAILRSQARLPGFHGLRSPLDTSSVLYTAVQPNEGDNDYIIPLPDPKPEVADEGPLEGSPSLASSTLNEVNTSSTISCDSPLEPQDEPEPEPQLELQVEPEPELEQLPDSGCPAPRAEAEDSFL

SMILES | IC50 (human PDGFRβ) | IC50 [1]
Cc1cc(F)c(Nc2ccnc3c2C(=O)Nc2cc(CN[C@H]4CC[C@H](O)CC4)ccc2N3)cc1O [Example 76, 4-[(2-Fluoro-5-hydroxy-4-methylphenyl)amino]-8-{[(trans-4-hydroxycyclohexyl)amino]methyl}-6,11-dihydro-5H-pyrido[2,3-b][1,5]benzodiazepin-5-one] | 1.58 nM | 11.3 nM
Cc1cc(F)c(Nc2ccnc3c2C(=O)Nc2cc(CN(C)C[C@H](C)O)ccc2N3)cc1O [Example 202, 4-[(2-Fluoro-5-hydroxy-4-methylphenyl)amino]-8-({[(2S)-2-hydroxypropyl](methyl)amino}methyl)-6,11-dihydro-5H-pyrido[2,3-b][1,5]benzodiazepin-5-one] | 1.55 nM | 39.1 nM
Cc1cc(F)c(Nc2ccnc3c2C(=O)Nc2cc(CN4CCN(CC(F)F)CC4)ccc2N3)cc1O [Example 227, 8-{[4-(2,2-Difluoroethyl)piperazin-1-yl]methyl}-4-[(2-fluoro-5-hydroxy-4-methylphenyl)amino]-6,11-dihydro-5H-pyrido[2,3-b][1,5]benzodiazepin-5-one] | 6.38 nM | 554 nM

Now from value to molecule:

IC50 (human PDGFRβ) | IC50 [1] | SMILES
0.826 nM | 43.9 nM | Cc1cc(F)c(Nc2ccnc3c2C(=O)Nc2cc(CNC(CO)C(C)C)ccc2N3)cc1O (racemic) [Example 75, rac-4-[(2-Fluoro-5-hydroxy-4-methylphenyl)amino]-8-{[(1-hydroxy-3-methylbutan-2-yl)amino]methyl}-6,11-dihydro-5H-pyrido[2,3-b][1,5]benzodiazepin-5-one]
1.25 nM | 106 nM | CCN(CC)Cc1ccc2c(c1)NC(=O)c1c(Nc3cc(O)c(Cl)cc3F)ccnc1N2 [Example 174, 4-[(4-Chloro-2-fluoro-5-hydroxyphenyl)amino]-8-[(diethylamino)methyl]-6,11-dihydro-5H-pyrido[2,3-b][1,5]benzodiazepin-5-one]
